Measurements taken from patent publication US12297482B2, “Rapid cell culture test device designed such that fluid films with uniform thickness are formed” (priority 2020, dated 2025).

Assays:
P. aeruginosa ATCC 27853 = test: Antibiotic susceptibility testing using the cell culture test device (DRAST), time-lapse colony observation; details: reference strain, observed until 6 h
Enterobacter cloacae [1] = test: Susceptibility testing of blood-sample strain using the cell culture test device (DRAST); format: cell-based; design: key: susceptible (S); intermediate resistance (I); resistance (R); details: strain from blood sample
Text: (§1) The liquid medium usually […].

Enterobacter cloacae [2] = test: Susceptibility testing of blood-sample strain by broth microdilution (BMD); format: cell-based; design: key: susceptible (S); intermediate resistance (I); resistance (R); details: BMD testing method, strain from blood sample
Experimental: The tests were conducted on various drugs that are currently used in testing organizations. […] Accordingly, these test results are all classified as minor errors of the first step judgement.

Enterococcus faecium [3] = test: Susceptibility testing of blood-sample strain using the cell culture test device (DRAST); format: cell-based; design: key: susceptible (S); intermediate resistance (I); resistance (R); details: strain from blood sample
Text: as §1
For example, the biological agent may be a culture of blood collected from a human infected with bacteria, i.e. a culture of blood positive for bacterial infection. In this case, a liquid medium stimulating the division of only the bacterial cells can be used to distinguish the bacterial cells from the blood cells based on their different sizes. The biological agent positive for bacterial infection may be collected and diluted with the gelling agent-containing liquid medium. Thus, there is no need to separate the bacteria from the blood sample, shortening the test time.

Enterococcus faecium [4] = test: Susceptibility testing of blood-sample strain by broth microdilution (BMD); format: cell-based; design: key: susceptible (S); intermediate resistance (I); resistance (R); details: BMD testing method, strain from blood sample
Experimental: The tests were conducted on various drugs that are currently used in testing organizations. […] Staphylococcus aureus, Staphylococcus epidermidis, Enterococcus faecalis, and Enterococcus faecium were detected in four blood samples. The test results on S. aureus and S. epidermidis in the BMD testing method were in good agreement with those in the testing method using the cell culture test device (DRAST) of the present disclosure.
Accordingly, these test results are all classified as minor errors of the first step judgement. […] The concentrations shown in FIG. 16 are expressed in μg/mL.

E. faecalis ATCC 29212 = test: Antibiotic susceptibility testing using the cell culture test device (DRAST), time-lapse colony observation; details: reference strain, observed until 6 h
S. aureus ATCC 29213 = test: as above; details: reference strain, observed until 6 h

## C[C@H]1[C@H](NC(=O)/C(=N\OC(C)(C)C(=O)O)c2csc(N)n2)C(=O)N1S(=O)(=O)O [aztreonam]
P. aeruginosa ATCC 27853
  MIC of the antibiotic against P. aeruginosa ATCC 27853: 8.0 mg/L

## C[C@@H](O)[C@H]1C(=O)N2C(C(=O)O)=C(S[C@@H]3CN[C@H](C(=O)Nc4cccc(C(=O)O)c4)C3)[C@H](C)[C@H]12 [ertapenem]
Enterobacter cloacae [1]
  susceptibility category (S/I/R) of E. cloacae: I
Enterobacter cloacae [2]
  susceptibility category (S/I/R) of E. cloacae: R

## CC(=O)NC[C@H]1CN(c2ccc(N3CCOCC3)c(F)c2)C(=O)O1 [linezolid]
Enterococcus faecium [3]
  susceptibility category (S/I/R) of E. faecium: I
Enterococcus faecium [4]
  susceptibility category (S/I/R) of E. faecium: R

## gentamicin
E. faecalis ATCC 29212
  MIC of the antibiotic against E. faecalis ATCC 29212: 8.0 mg/L

## penicillin
S. aureus ATCC 29213
  MIC of the antibiotic against S. aureus ATCC 29213: 1.0 mg/L
